How the values were obtained:
[1] = molecular target: T1, MacB (Acinetobacter baumannii, UniProt A0A0D8G707); assay: X-ray crystal structure of complex ([…] Å); settings: co-crystallized with 10 mM ADPβS, 2 mM MgCl2; composite nucleotide-binding sites at NBD dimer interface
T1 construct: full length (664 residues inferred: stop at Leu655 removes C-terminal 10), N-terminal His6 tag, E. coli BL21(DE3), UDM-solubilized homodimer

[2] = molecular target: MacB from Acinetobacter baumannii (Acinetobacter baumannii); assay: crystal structure; MacB in 0.05% UDM, 10 mM ADPβS and 2 mM MgCl2 added; sitting drop vapour diffusion at 25 °C, 1.2–1.3 M sodium citrate, 100 mM Na-HEPES pH 7.2; Se-Met crystal with 2 mM ATP instead of ADPβS; 3.4 Å

Row | Compound | X-ray crystal structure of complex (3.4 Å) [1] | stoichiometry N [2]
1 | Nc1ncnc2c1ncn2[C@@H]1O[C@H](COP(=O)(O)OP(=O)(O)S)[C@@H](O)[C@H]1O (some centres unmarked) [ADPβS] | MacB was crystallized in the presence of adenosine-5′-(β-thio)-diphosphate (ADPβS) | 
2 | MacB from Acinetobacter baumannii (from UniProt A0A0D8G707 1-664) (natural protein) |  | 2

Reference: article PMC5673888, “Crystal structure of tripartite-type ABC transporter MacB from Acinetobacter baumannii” (Nature Communications, 2017)
